Assay results as given in US6346535B1, “Fungicidal mixtures” (American Cyanamid Company, priority 1999, dated 2002).
Read-outs that look alike come from different tables or passages of the source.

Tests used:
Format in all cases: in vivo
[1] = tested on: Puccinia recondita on wheat; experiment: Greenhouse trial, 4 day residual, Puccinia recondita on wheat; settings: for pest or weed control at 10 ppm: dose rate 10 ppm
Description: (§1) The fungicides are applied in single treatments, or in a combination comprising a benzophenone of formula I and a compound selected from (A) through (E) as defined above. The compounds are applied in form of an aqueous spray mix obtained from a concentrated formulation or the technical material.
(§2) 1. Seed is planted in 6 cm diameter plastic pots and maintained in the greenhouse.
(§3) 2. When the primary leaf is fully expanded (in the case of cereals) or several leaves are present (in the case of dicots), formulated test compounds are sprayed with a three nozzle overhead fungicide sprayer to near run-off. Alternatively, a single nozzle overhead track sprayer is used for application of the compounds to cereals at a rate of 200 liters/ha (l/ha). Plants are then allowed to air-dry.
(§4) 3. Inoculation precedes treatment in the case of curative evaluations and follows treatment in case of residual evaluations. For inoculation of powdery mildew disease, plants are set up on greenhouse benches with bottom watering mats and inoculated by dusting them with conidia from infected plants. Between inoculation and treatment for curative evaluations and between treatment and inoculation for residual evaluations, plants are maintained in the greenhouse with bottom watering. For inoculation of non-powdery mildew diseases, an aqueous spore suspension of the pathogen is applied to the plant and the plants are kept 1-2 days in a moist infection chamber before being returned to the greenhouse where they are maintained by bottom watering.
(§5) 4. Disease on the foliage as percent leaf area with disease symptoms/signs is evaluated about 7 days after inoculation. In the case of wheat, the tips and bases of the leaves are excluded from the evaluation. [formula]
(§6) 1. Technical compounds are formulated in a solvent/surfactant system consisting of 5% acetone and 0.05% Tween 20 in deionized water. Compounds are dissolved in acetone prior to addition of the water; the Tween 20 can be added through either the acetone or the water. Dilutions are made using the solvent/surfactant system. Formulated compounds are prepared using deionized water.
(§7) Assessments of the diseases took place at the indicated day after the application of the compounds. Per cent infected leaf area infected was evaluated. The efficacy of the compounds/compounds mixtures to control the diseases was calculated by using the formula given above under item 4: […]
(§8) Synergy of a fungicide mixture was determined by comparing the actual (observed) fungicidal activity of the mixture to the expected fungicidal activity of the mixture as calculated using the COLBY formula given hereinabove.
Fungicidal Efficacy of the Mixture of BP-4+Other Fungicides (4 Day Residual) Against Puccinia recondita on Wheat
Fungicidal Efficacy of the Mixture of BP-4+Myclobutanil (4 Day Residual) Against Puccinia recondita on Wheat

[2] = tested on: Erysiphe cichoracearum on cucumbers; experiment: Greenhouse trial, 4 day residual, Erysiphe cichoracearum on cucumbers
Description: as §1, §2, §3, §4, §5, §6, §7, §8

[3] = tested on: Pyrenophora teres on barley; experiment: Greenhouse trial, 4 day residual, Pyrenophora teres on barley; settings: for pest or weed control at 0.4 ppm / pest or weed control at 2 ppm / pest or weed control at 10 ppm / pest or weed control at 50 ppm: Pyrenophora teres, 96 h, read-out: Observed Efficacy
Description: as §1, §2, §3, §4, §5, §6, §7, §8
Fungicidal Efficacy of the Mixture of BP-4+Other Fungicides (4 Day Residual) Against Pyrenophora teres on Barley

[4] = tested on: Leptosphaeria nodorum on wheat; experiment: Greenhouse trial, 4 day residual, Leptosphaeria nodorum on wheat; settings: Table VIII, compound alone
Description: as §1, §2, §3, §4, §5, §6, §7, §8
Fungicidal Efficacy of the Mixture of BP-4+Other Fungicides (4 Day Residual) Against Leptosphaeria nodorum on Wheat

[5] = Puccinia recondita, 96 h, Table XV (Example 15), 4 day residual, dose rate 2 ppm, read-out: Observed Efficacy
[6] = Puccinia recondita, 96 h, Table XV (Example 15), 4 day residual, read-out: Observed Efficacy
[7] = Puccinia recondita, 96 h, Table XV (Example 15), 4 day residual, dose rate 50 ppm, read-out: Observed Efficacy
[8] = Golovinomyces cichoracearum, 96 h, Table XIV (Example 14), 4 day residual, dose rate 0.4 ppm, read-out: Observed Efficacy
[9] = Golovinomyces cichoracearum, 96 h, Table XIV (Example 14), 4 day residual, dose rate 2 ppm, read-out: Observed Efficacy
[10] = Golovinomyces cichoracearum, 96 h, Table XIV (Example 14), 4 day residual, dose rate 10 ppm, read-out: Observed Efficacy
[11] = Table XVI (Example 16), 4 day residual, dose rate 0.4 ppm
[12] = Table XVI (Example 16), 4 day residual, dose rate 2 ppm
[13] = Table XVI (Example 16), 4 day residual, dose rate 10 ppm
[14] = Table XVI (Example 16), 4 day residual, dose rate 50 ppm
[15] = Golovinomyces cichoracearum, 96 h, Table XI, compound alone, dose rate 0.4 ppm, read-out: Observed Efficacy
[16] = Golovinomyces cichoracearum, 96 h, Table XI, compound alone, dose rate 2 ppm, read-out: Observed Efficacy
[17] = Golovinomyces cichoracearum, 96 h, Table XI, compound alone, dose rate 10 ppm, read-out: Observed Efficacy
[18] = Golovinomyces cichoracearum, 96 h, Table XI, compound alone, dose rate 50 ppm, read-out: Observed Efficacy
[19] = Table XIII (Example 13), 4 day residual, dose rate 2 ppm
[20] = Table XIII (Example 13), 4 day residual, dose rate 10 ppm
[21] = Table XIII (Example 13), 4 day residual, dose rate 0.4 ppm
[22] = Puccinia recondita, 96 h, Table XV (Example 15), 4 day residual, dose rate 0.4 ppm, read-out: Observed Efficacy
[23] = Table XIII (Example 13), 4 day residual, dose rate 50 ppm
[24] = Puccinia recondita, 96 h, read-out: Observed Efficacy
[25] = Golovinomyces cichoracearum, 96 h, read-out: Observed Efficacy
[26] = Golovinomyces cichoracearum, 96 h, Table XIV (Example 14), 4 day residual, dose rate 50 ppm, read-out: Observed Efficacy

## CCCN(CC)CC1COC2(CCC(C(C)(C)C)CC2)O1 (stereo not shown) [Spiroxamine]
[1]; [5]
  pest or weed control at 2 ppm: 0%
[1]; [6]
  pest or weed control at 10 ppm: 4%
[1]; [7]
  pest or weed control at 50 ppm: 17%
[2]; [8]
  pest or weed control at 0.4 ppm: 0%
[2]; [9]
  pest or weed control at 2 ppm: 0%
[2]; [10]
  pest or weed control at 10 ppm: 2%
[3]; [11]
  pest or weed control at 0.4 ppm: 0%
[3]; [12]
  pest or weed control at 2 ppm: 3%
[3]; [13]
  pest or weed control at 10 ppm: 5%
[3]; [14]
  pest or weed control at 50 ppm: 16%

## S1SSSSSSS1 [Sulfur organic, Sulfur]
[2]; [15]
  pest or weed control at 0.4 ppm: 0%
[2]; [16]
  pest or weed control at 2 ppm: 0%
[2]; [17]
  pest or weed control at 10 ppm: 7%
[2]; [18]
  pest or weed control at 50 ppm: 0%
[3]; [19]
  pest or weed control at 2 ppm: 0%
[3]; [20]
  pest or weed control at 10 ppm: 0%

## Flusilazole [listing 1 of 2 here]
[1]; Table XV (Example 15), 4 day residual, dose rate 0.4 ppm
  Observed Efficacy: 5
[1]; Table XV (Example 15), 4 day residual, dose rate 2 ppm
  Observed Efficacy: 28
[2]; Table XIV (Example 14), 4 day residual, dose rate 0.4 ppm
  Observed Efficacy: 0
[2]; Table XIV (Example 14), 4 day residual, dose rate 2 ppm
  Observed Efficacy: 0
[2]; Table XIV (Example 14), 4 day residual, dose rate 10 ppm
  Observed Efficacy: 19
[3]; [12]
  Observed Efficacy: 8
[3]; [13]
  Observed Efficacy: 26

## CO/N=C(/C(=O)OC)c1ccccc1COc1ccccc1C [Kresoxim-methyl]
[2]; [15]
  pest or weed control at 0.4 ppm: 2%
[2]; [16]
  pest or weed control at 2 ppm: 14%
[2]; [17]
  pest or weed control at 10 ppm: 88%
[2]; [18]
  pest or weed control at 50 ppm: 100%
[3]; [21]
  pest or weed control at 0.4 ppm: 0%
[3]; [19]
  pest or weed control at 2 ppm: 21%

## CC(Cc1ccc(C(C)(C)C)cc1)CN1C[C@@H](C)O[C@@H](C)C1 (stereo partly shown) [Fenpropimorph]
[1]; [22]
  pest or weed control at 0.4 ppm: 2%
[1]; [5]
  pest or weed control at 2 ppm: 15%
[1]; [7]
  pest or weed control at 50 ppm: 60%
[2]; [8]
  pest or weed control at 0.4 ppm: 0%
[2]; [9]
  pest or weed control at 2 ppm: 0%
[2]; [10]
  pest or weed control at 10 ppm: 7%
[3]; [11]
  pest or weed control at 0.4 ppm: 0%
[3]; [12]
  pest or weed control at 2 ppm: 0%
[3]; [13]
  pest or weed control at 10 ppm: 3%

## Propiconazole
[2]; Table XI, compound alone, dose rate 0.4 ppm
  Observed Efficacy: 0%
[2]; Table XI, compound alone, dose rate 2 ppm
  Observed Efficacy: 19%
[2]; Table XI, compound alone, dose rate 10 ppm
  Observed Efficacy: 76%
[2]; Table XI, compound alone, dose rate 50 ppm
  Observed Efficacy: 96%
[3]; [21]
  Observed Efficacy: 0
[3]; [19]
  Observed Efficacy: 0
[3]; [20]
  Observed Efficacy: 38
[3]; [23]
  Observed Efficacy: 74

## CC(C1CC1)C(O)(Cn1cncn1)c1ccc(Cl)cc1 (stereo not shown) [Cyproconazole]
[1]; [22]
  pest or weed control at 0.4 ppm: 88%
[1]; [5]
  pest or weed control at 2 ppm: 99%
[2]; [8]
  pest or weed control at 0.4 ppm: 19%
[2]; [10]
  pest or weed control at 10 ppm: 68%
[3]; [12]
  pest or weed control at 2 ppm: 4%
[3]; [13]
  pest or weed control at 10 ppm: 1%

## CCCN(CCOc1c(Cl)cc(Cl)cc1Cl)C(=O)n1ccnc1 [Prochloraz]
[1]; [24]
  pest or weed control at 0.4 ppm: 0%
  pest or weed control at 2 ppm: 0%
  pest or weed control at 16 ppm: 1%
  pest or weed control at 50 ppm: 14%
[2]; [25]
  pest or weed control at 0.4 ppm: 0%
  pest or weed control at 2 ppm: 0%
  pest or weed control at 10 ppm: 1%
  pest or weed control at 50 ppm: 18%
[3]
  pest or weed control at 0.4 ppm: 8%
  pest or weed control at 2 ppm: 19%
  pest or weed control at 10 ppm: 48%

## OC(c1ccc(Cl)cc1)(c1cncnc1)c1ccccc1Cl (stereo not shown) [Fenarimol]
[1]; [22]
  pest or weed control at 0.4 ppm: 0%
[1]; [5]
  pest or weed control at 2 ppm: 9%
[1]; [6]
  pest or weed control at 10 ppm: 23%
[1]; [7]
  pest or weed control at 50 ppm: 90%
[2]; [8]
  pest or weed control at 0.4 ppm: 5%
[2]; [9]
  pest or weed control at 2 ppm: 34%
[2]; [10]
  pest or weed control at 10 ppm: 42%
[2]; [26]
  pest or weed control at 50 ppm: 67%
[3]; [12]
  pest or weed control at 2 ppm: 0%
[3]; [13]
  pest or weed control at 10 ppm: 4%

## Flusilazole [listing 2 of 2 here]
[1]; Table XV (Example 15), 4 day residual, dose rate 50 ppm
  Observed Efficacy: 100
[2]; Table XIV (Example 14), 4 day residual, dose rate 50 ppm
  Observed Efficacy: 38
[3]; [14]
  Observed Efficacy: 48

## CON=C(Cc1cccnc1)c1ccc(Cl)cc1Cl [Pyrifenox]
[1]; [22]
  pest or weed control at 0.4 ppm: 0%
[1]; [5]
  pest or weed control at 2 ppm: 0%
[1]; [6]
  pest or weed control at 10 ppm: 1%
[1]; [7]
  pest or weed control at 50 ppm: 6%
[2]; [8]
  pest or weed control at 0.4 ppm: 0%
[2]; [9]
  pest or weed control at 2 ppm: 0%
[2]; [10]
  pest or weed control at 10 ppm: 1%
[2]; [26]
  pest or weed control at 50 ppm: 20%
[3]; [11]
  pest or weed control at 0.4 ppm: 0%
[3]; [12]
  pest or weed control at 2 ppm: 0%
[3]; [14]
  pest or weed control at 50 ppm: 15%

## [Cl-].[Cu+2].[Cu+2].[OH-].[OH-].[OH-] [Copper oxychloride]
[3]; [21]
  Observed Efficacy: 0
[3]; [19]
  Observed Efficacy: 0
[3]; [20]
  Observed Efficacy: 14
[3]; [23]
  Observed Efficacy: 14

## N#Cc1sc2c(=O)c3ccccc3c(=O)c=2sc1C#N [Dithianon]
[1]; Puccinia recondita, 96 h, Table VII, compound alone, dose rate 4 ppm, read-out: Observed Efficacy
  pest or weed control at 4 ppm: 4%
[1]; Puccinia recondita, 96 h, Table VII, compound alone, dose rate 16 ppm, read-out: Observed Efficacy
  pest or weed control at 16 ppm: 16%
[1]; Puccinia recondita, 96 h, Table VII, compound alone, dose rate 64 ppm, read-out: Observed Efficacy
  pest or weed control at 64 ppm: 84%
[1]; Puccinia recondita, 96 h, Table VII, compound alone, dose rate 256 ppm, read-out: Observed Efficacy
  pest or weed control at 256 ppm: 95%
[4]; Parastagonospora nodorum, 96 h, dose rate 4 ppm, read-out: Observed Efficacy
  pest or weed control at 4 ppm: 0%
[4]; Parastagonospora nodorum, 96 h, dose rate 16 ppm, read-out: Observed Efficacy
  pest or weed control at 16 ppm: 1%
[4]; Parastagonospora nodorum, 96 h, dose rate 64 ppm, read-out: Observed Efficacy
  pest or weed control at 64 ppm: 37%
[4]; Parastagonospora nodorum, 96 h, dose rate 256 ppm, read-out: Observed Efficacy
  pest or weed control at 256 ppm: 74%
[2]; Golovinomyces cichoracearum, 96 h, Table VI, compound alone, dose rate 4 ppm, read-out: Observed Efficacy
  pest or weed control at 4 ppm: 0%
[2]; Golovinomyces cichoracearum, 96 h, Table VI, compound alone, dose rate 16 ppm, read-out: Observed Efficacy
  pest or weed control at 16 ppm: 0%
[2]; Golovinomyces cichoracearum, 96 h, Table VI, compound alone, dose rate 64 ppm, read-out: Observed Efficacy
  pest or weed control at 64 ppm: 0%
[2]; Golovinomyces cichoracearum, 96 h, Table VI, compound alone, dose rate 256 ppm, read-out: Observed Efficacy
  pest or weed control at 256 ppm: 0%

## Mancozeb
[1]; Table VII, compound alone, dose rate 4 ppm
  Observed Efficacy: 0%
[1]; Table VII, compound alone, dose rate 16 ppm
  Observed Efficacy: 0%
[1]; Table VII, compound alone, dose rate 64 ppm
  Observed Efficacy: 28%
[1]; Table VII, compound alone, dose rate 256 ppm
  Observed Efficacy: 91%
[4]; dose rate 4 ppm
  Observed Efficacy: 0%
[4]; dose rate 16 ppm
  Observed Efficacy: 21%
[4]; dose rate 64 ppm
  Observed Efficacy: 47%
[4]; dose rate 256 ppm
  Observed Efficacy: 69%
[2]; Table VI, compound alone, dose rate 4 ppm
  Observed Efficacy: 0%
[2]; Table VI, compound alone, dose rate 16 ppm
  Observed Efficacy: 0%
[2]; Table VI, compound alone, dose rate 64 ppm
  Observed Efficacy: 1%
[2]; Table VI, compound alone, dose rate 256 ppm
  Observed Efficacy: 33%
